Read-outs that look alike come from different tables or passages of the source.

Assay [1] deals with late blight of potato (Phytophthora infestans). In kind it is in vivo.
Another assay relates to late blight of potato. It counts as in vivo, Phytophthora infestans. The note with it: T4: foliar spray, 7 days interval; 0.8 ml/L.
Where [2] appears, read: T3: foliar spray 30, 45, 60 and 75th day, dose 2.0 mL/Litre.
Setting [3] is: T4: foliar spray 30, 45, 60 and 75th day, dose 2 g/lit.
Setting [4] is: T5: foliar spray 45th day only, dose 2 g/lit.

`C#CCOc1ccc(CCNC(=O)C(OCC#C)c2ccc(Cl)cc2)cc1OC` (centres unmarked) [Mandipropamid]: in assay [1] (setting [2]), the “Per cent Disease Index (PDI)” value is reported as 12.5% and the “Per cent reduction over control” value is 86.7%. In addition, in the assay on late blight of potato, the “Per cent Disease Index (PDI)” value is 14.11% and the “Per cent reduction over control” value came to 83.40%.
Turning to Mancozeb, in assay [1] (setting [3]), the “Per cent Disease Index (PDI)” value came out at 15.6% and the “Per cent reduction over control” value came to 83.4%. Also, in assay [1] (setting [4]), the “Per cent Disease Index (PDI)” value amounted to 45.2% and the “Per cent reduction over control” value was found to be 51.9%.

(Values after patent publication US20250127176A1 (priority 2021, published 2025).)
